Assay results as given in patent US20080132568A1, “COMPOUNDS WITH ANTI-ANDROGENIC ACTIVITY AND THE USE THEREOF” (priority 2006, published 2008).
Entries after “also recorded” stand apart in the source; their conditions may differ.

What was measured:
Assay type in all cases: cell-based, human
[1] = system: PC3 prostate cancer cell line; experiment: Growth of androgen-independent PC3 cells; settings: 4 days, data not shown
Description: (§1) Cell proliferation and viability assays: Cell numbers were determined using a hemacytometer. Relative cell growth changes were determined using cells plated in 96-well tissue culture plates using the CyQUANT NF Cell Proliferation Assay Kit (Invitrogen) according to manufacturer's instructions. Cell viability was measured using trypan blue exclusion and quantified using light microscopy and hemacytometry. Additionally, cell viability was measured by propidium iodide exclusion using flow cytometry (FACScan; BD Biosciences, San Jose, Calif.) after VE and ATQ treatment.

[2] = system: LAPC4 prostate cancer cells; experiment: CyQUANT cell proliferation assay, LAPC4; settings: 10 to 50 μM, 4 days
Description: (§2) Cell culture and treatment protocols: The LNCaP prostate cancer cells used in these studies were acquired from American Type Culture Collection (Manassas, Va.). All cell lines were maintained in Dulbecco's modified Eagle's medium (DMEM; Invitrogen, Carlsbad, Calif.) containing 5% heat-inactivated fetal calf serum (FCS; Sigma, St. Louis, Mo.) with streptomycin-penicillin antibiotics (designated DMEM/FCS) in a 5% CO2 incubator at 37° C. LAPC4 prostate cancer cells adapted to growth in DMEM and 5% FCS were acquired from George Wilding (University of Wisconsin Paul P. Carbone Comprehensive Cancer Center). For experiments evaluating androgenic responses, cells were cultured in DMEM containing 4% charcoal-stripped FCS and 1% unstripped FCS (designated DMEM/CSS). […]
as §1

AR mRNA [3] = experiment: AR mRNA expression by qPCR, LAPC4; settings: for AR mRNA levels (qPCR): LAPC4, 4 days
Description: (§3) Messenger RNA expression analysis: Total RNA was extracted from cells using TRIzol Reagent (Invitrogen, Carlsbad, Calif.) and cDNA was prepared from total RNA using the High Capacity cDNA Reverse Transcription Kit (Applied Biosystems, Foster City, Calif.). Quantititive PCR was performed for AR expression using an Applied Biosystems 7900HT Fast Real-Time PCR System (Carlsbad, Calif.) and QuantiTect Primers Assays (Qiagen Inc., Valencia, Calif.) for AR and GAPDH mRNA.

PSA = experiment: Prostate specific antigen analysis, LNCaP medium; settings: for R1881-induced PSA release / PSA levels in medium: 10 to 40 μM
Description: Prostate specific antigen analysis: LNCaP cells were cultured in 96-well plates (Costar) at 5,000 cells per well in DMEM/CSS 1 day before treatment. Forty-eight hours after treatment, media levels of PSA released from LNCaP cells were measured using a PSA Enzyme Immunoassay Test Kit (BioCheck, Inc., Foster City, Calif.) according to manufacturer's instructions supplied with the kit. PSA levels were normalized to cell numbers as determined using the CyQUANT NF Cell Proliferation Assay Kit (Invitrogen), as described previously.

LNCaP cells = experiment: LNCaP viability by propidium iodide exclusion and flow cytometry; settings: 30 μM, 4 days
Description: as §2, §1

[4] = system: androgen-sensitive MMTV promoter; experiment: Promoter activation assay (MMTV/luciferase) in LNCaP; settings: 30 μM, 48 hours
Description: Promoter activation assay: LNCaP and LAPC4 prostate carcinoma cell lines were cultured in 12- or 24-well cell culture plates (Costar) in DMEM/CSS 2 to 3 days before transfection. Androgen-induced transcriptional activation was determined using a reporter construct with an MMTV promoter that regulates the expression of luciferase (Thompson T A et al., In Vitro Cell. Dev. Biol. 1993, 29A:165-170). LNCaP cells were transfected using the calcium phosphate precipitation method with an MMTV/luciferase plasmid. LAPC4 cells were transfected with an MMTV/luciferase plasmid using the FuGENE 6 Transfection Reagent (Roche Applied Science), according to the manufacturer's instructions. Twenty-four hours after transfection, cells were treated with R1881 with or without test reagents at the specified concentrations. Cell extracts were acquired 24 to 48 hours after treatment in 100 μL of Cell Culture Lysis Reagent (Promega, Madison, Wis.). Luciferase activity was measured using the Luciferase Assay Substrate (Promega, Madison, Wis.) according to instructions and read on a TD-20/20 Luminometer (Turner Designs, Sunnyvale, Calif.).

AR mRNA [5] = experiment: AR mRNA expression by qPCR, LNCaP; settings: 4 days
Description: as §3

AR protein [6] = experiment: Immunoblot analysis of AR protein, LNCaP; settings: 4 days
Description: (§4) Immunoblot analysis: LNCaP or LAPC4 prostate cancer cells were plated at a density of 1×10^6 cells per 100 mm cell culture plate in 10 ml of DMEM/CSS and maintained in incubators at 37° C. in 5% CO2. […] Cell extracts were stored at −80° C. until analysis. Total protein (25 μg) from cell extracts were electrophoresed on 7.5% SDS-polyacrylamide gels and transferred to Immobilon-P membranes (Millipore Corp., Bedford, Mass.) using a GENIE wet transfer system (Idea Scientific, Minneapolis, Minn.). Membranes were blocked in Tris-buffered saline containing 5% nonfat dry milk and then incubated with mouse anti-AR (441) monoclonal antibody (Santa Cruz Biotechnology, Santa Cruz, Calif.) or mouse anti-actin antibody (A5441; Sigma). After washing, membranes were incubated with a secondary horseradish peroxidase-conjugated goat anti-mouse IgG (Biomeda, Foster City, Calif.) and analyzed using Western Lightening Chemiluminescence Reagent Plus (Boston, Mass.) on a Kodak Image Station 4000MM (Rochester, N.Y.). Band intensities were determined using Kodak Molecular Imaging Software.

[7] = system: LNCaP prostate cancer cells; experiment: CyQUANT cell proliferation assay, LNCaP; settings: 10 to 50 μM, 4 days
Description: as §2, §1

AR protein [8] = experiment: Immunoblot analysis of AR protein, LAPC4
Description: as §4

Cc1c(C)c2c(c(C)c1O)CCC(C)(CCCC(C)CCCC(C)CCCC(C)C)O2 (racemic) [VE, dl-α-tocopherol, reference compound]
PC3 cell growth [1]: neither ATQ nor VE decreased the growth
LAPC4 cell growth (CyQUANT) [2]: modest, but significant, decrease; also recorded: decreased slightly; also recorded: much less effective
AR mRNA levels (qPCR) (AR mRNA [3]): did not affect
R1881-induced PSA release / PSA levels in medium (PSA): did not affect; also recorded: remained unchanged
Cell viability (LNCaP cells): did not affect
Androgen-induced (R1881) MMTV promoter luciferase activity [4]: significantly increased
AR mRNA levels (qPCR) (AR mRNA [5]): did not affect

CC1=C(C)C(=O)C(CC[C@](C)(O)CCC[C@H](C)CCC[C@H](C)CCCC(C)C)=C(C)C1=O [ATQ, α-tocopherylquinone]
reduction in AR protein levels (AR protein [6]; 30 μM): 4 fold
AR protein levels (AR protein [6]): decreased
LNCaP cell growth (relative growth, CyQUANT) [7]: dose-dependent decrease; also recorded: significantly decreased
PC3 cell growth [1]: neither ATQ nor VE decreased the growth
LAPC4 cell growth (CyQUANT) [2]: dose-dependent decrease; also recorded: significantly decreased
decrease in AR mRNA levels (AR mRNA [3]; LAPC4, 30 μM, 4 days): 2 fold
AR mRNA levels (qPCR) (AR mRNA [3]): reduced levels
reduction in R1881-induced PSA release compared to untreated control cells (PSA; 10 μM): 50%
decrease in PSA release compared to untreated controls (PSA; 40 μM): 4 fold
R1881-induced PSA release / PSA levels in medium (PSA): significantly reduced; also recorded: inhibited
reduction in AR protein levels (AR protein [8]; LAPC4, 25 μM, 4 days): 4 fold
AR protein levels (AR protein [8]; LAPC4, 4 days): decreased
Cell viability (LNCaP cells): significantly decreased
Androgen-induced (R1881) MMTV promoter luciferase activity [4]: inhibit; also recorded: significantly reduced
decrease in AR mRNA levels (AR mRNA [5]; 30 μM): 2 fold
AR mRNA levels (qPCR) (AR mRNA [5]): reduced levels
